From US11319324B2, “Pyrazolo-pyrrolo-pyrimidine-dione derivatives as P2X3 inhibitors” (Bayer Aktiengesellschaft, priority 2017, dated 2022)

What was measured:
Format in all cases: cell-based
human P2X2/3 receptors = target: T1, human P2X2/3 receptors (Homo sapiens, UniProt P56373+Q9UBL9); assay: Intracellular calcium measurement, antagonist activity at human P2X2/3 receptors (hP2X23 1321N1), Fluo8; conditions: for IC50: column 4); 1321N1 cells, human P2X2/3, Fluo8, agonist ATP at EC50; read-out: 4) hP2X2/3 IC50 [nM] (1321N1); for hP2X23/hP2X3* Selectivity (1321N1): ratio of column 4) hP2X2/3 to column 3) hP2X3, 1321N1
T1 construct: expressed in transfected cells; host or cells: human astrocytoma 1321N1 (1312N1 [sic])
T1 sequence (P56373 1-397): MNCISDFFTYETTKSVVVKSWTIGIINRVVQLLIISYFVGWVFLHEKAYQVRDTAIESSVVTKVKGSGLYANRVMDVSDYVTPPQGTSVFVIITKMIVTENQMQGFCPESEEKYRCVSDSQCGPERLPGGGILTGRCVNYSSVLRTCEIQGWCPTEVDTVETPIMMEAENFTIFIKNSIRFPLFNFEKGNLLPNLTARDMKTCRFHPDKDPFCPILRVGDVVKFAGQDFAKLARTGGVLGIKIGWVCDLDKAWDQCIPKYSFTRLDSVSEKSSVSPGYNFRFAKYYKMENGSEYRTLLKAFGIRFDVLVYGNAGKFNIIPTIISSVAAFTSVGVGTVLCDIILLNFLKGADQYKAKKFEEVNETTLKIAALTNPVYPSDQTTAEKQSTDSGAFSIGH
T1 sequence (Q9UBL9 1-471): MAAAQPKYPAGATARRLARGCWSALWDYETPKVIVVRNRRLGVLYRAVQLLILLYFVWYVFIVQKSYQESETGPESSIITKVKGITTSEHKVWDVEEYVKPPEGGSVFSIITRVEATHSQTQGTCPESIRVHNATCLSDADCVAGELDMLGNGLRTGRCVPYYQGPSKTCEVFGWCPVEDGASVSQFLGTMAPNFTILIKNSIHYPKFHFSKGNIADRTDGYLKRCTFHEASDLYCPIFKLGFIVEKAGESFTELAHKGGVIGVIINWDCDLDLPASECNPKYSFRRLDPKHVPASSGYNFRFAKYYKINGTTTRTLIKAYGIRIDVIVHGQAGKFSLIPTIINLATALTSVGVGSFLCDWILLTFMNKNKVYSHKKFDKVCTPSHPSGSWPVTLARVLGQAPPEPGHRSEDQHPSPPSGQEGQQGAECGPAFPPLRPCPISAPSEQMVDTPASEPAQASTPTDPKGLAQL
In short: (§1)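 Antagonism was assessed by decrease of the Fluo8 calcium signal after ATP challenge, with ATP dosed at the EC50 of whichever receptor was tested. Stable 1321N1 astrocytoma lines expressed either human P2X3 or both P2X2 and P2X3, and were dye-loaded 60 min before a 10 min compound incubation.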

human P2X3 receptor [1] = target: T2, human P2X3 receptor (Homo sapiens, UniProt P56373); assay: Intracellular calcium measurement to assess antagonist activity at human P2X3 receptors (hP2X3 CHO), photina luminescence; design: expressed in transfected cells; host or cells: Chinese hamster ovary (CHO) cells; conditions: column 2), CHO cells, agonist α,β-methylene-ATP at EC50
T2 sequence (P56373 1-397): T1 sequence (P56373 1-397)
In short: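 Antagonism read as lowered photina luminescence after agonist stimulation in recombinant hP2X3/photina CHO cells. Cells seeded one day earlier (30 °C) and reconstituted with 5 μg/ml coelenterazine in 2 mM Ca-tyrode buffer for 3 h at 37 °C before measurement.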

human P2X3 receptor [2] = target: T2, human P2X3 receptor; assay: Intracellular calcium measurement, antagonist activity at human P2X3 receptors (hP2X3 1321N1), Fluo8; design: expressed in transfected cells; host or cells: human astrocytoma 1321N1 (1312N1 [sic]); conditions: column 3); 1321N1 cells, human P2X3, Fluo8, agonist ATP at EC50
In short: as §1

Row | Compound | IC50 (human P2X2/3 receptors) [nM] | hP2X23/hP2X3* Selectivity (1321N1) (human P2X2/3 receptors) | IC50 (human P2X3 receptor [1]) [nM] | IC50 (human P2X3 receptor [2]) [nM]
1 | COC[C@H](C)N1Cc2c(n(CC(=O)Nc3ccc(F)cn3)c3cc(-c4cc(C)ncc4C)nn3c2=O)C1=O [Example 158] | 1400 | 424 | 10 | 3
2 | CNC(=O)c1cc2n(CC(=O)Nc3ccc(F)cn3)c3c(c(=O)n2n1)CN([C@@H](C)COC)C3=O [Example 193] | > 22500 | >180 | 155 | 125
3 | CCc1cc2n(CC(=O)Nc3ccc(F)cn3)c3c(c(=O)n2n1)CN(C1CCN(C(C)=O)C1)C3=O (centres unmarked) [Example 265] | > 32000 | >68 | 533 | 470
4 | CC(C)N1Cc2c(n(CC(=O)Nc3ccc(F)cn3)c3cc(C(=O)NC4CCCC4)nn3c2=O)C1=O [Example 185] | 3350 | 84 | 22 | 40
5 | CC(C)N1Cc2c(n(CC(=O)Nc3ccc(F)cn3)c3cc(C(=O)N4CCOCC4)nn3c2=O)C1=O [Example 225, N-(5-fluoropyridin-2-yl)-2-[2-(morpholin-4-ylcarbonyl)-5,8-dioxo-6-(propan-2-yl)-5,6,7,8-tetrahydro-4H-pyrazolo[1,5-a]pyrrolo[3,4-d]pyrimidin-4-yl]acetamide] | > 32000 | >481 | 37 | 67
6 | CCc1cc2n(CC(=O)Nc3ccc(F)cn3)c3c(c(=O)n2n1)CN(C1CCN(C)C1)C3=O (centres unmarked) [Example 253] | > 32000 | >40 | 493 | 793
7 | CC(C)N1Cc2c(n(CC(=O)Nc3ccc(F)cn3)c3cc(C(=O)N4CCC4)nn3c2=O)C1=O [Example 223, 2-[2-(azetidin-1-ylcarbonyl)-5,8-dioxo-6-(propan-2-yl)-5,6,7,8-tetrahydro-4H-pyrazolo[1,5-a]pyrrolo[3,4-d]pyrimidin-4-yl]-N-(5-fluoropyridin-2-yl)acetamide] | 8920 | 158 | 23 | 56
8 | CC(C)N1Cc2c(n(CC(=O)Nc3ccc(F)cn3)c3cc(C4CCN(C)CC4)nn3c2=O)C1=O [Example 251] | > 32000 | >164 | 235 | 195
9 | CC(C)Cc1cc2n(CC(=O)Nc3ccc(F)cn3)c3c(c(=O)n2n1)CN(C(C)C)C3=O [Example 82] | 1870 | 239 | 6 | 8
10 | CC(C)NC(=O)Nc1cc2n(CC(=O)Nc3ccc(F)cn3)c3c(c(=O)n2n1)CN(C(C)C)C3=O [Example 290, 2-[5,8-dioxo-6-(propan-2-yl)-2-{[(propan-2-yl)carbamoyl]amino}-5,6,7,8-tetrahydro-4H-pyrazolo[1,5-a]pyrrolo[3,4-d]pyrimidin-4-yl]-N-(5-fluoropyridin-2-yl)acetamide] | 4650 | 44 | 115 | 105
11 | Cc1ccc(-c2cc3n(CC(=O)Nc4ccc(F)cn4)c4c(c(=O)n3n2)CN([C@@H]2CCOC2)C4=O)nc1 [Example 160, N-(5-fluoropyridin-2-yl)-2-[2-(5-methylpyridin-2-yl)-5,8-dioxo-6-[(3R)-oxolan-3-yl]-5,6,7,8-tetrahydro-4H-pyrazolo[1,5-a]pyrrolo[3,4-d]pyrimidin-4-yl]acetamide] | 2200 | 367 | 16 | 6
12 | CC(C)N1Cc2c(n(CC(=O)Nc3ccc(F)cn3)c3cc(C4CCCCC4)nn3c2=O)C1=O [Example 85] | 1950 | 328 | 4 | 6
13 | CCc1cc2n(CC(=O)Nc3ccc(F)cn3)c3c(c(=O)n2n1)CN(CCN1CCOCC1)C3=O [Example 95] | > 22500 | >82 | 178 | 273
14 | CC(C)N1Cc2c(n(CC(=O)Nc3ccc(F)cn3)c3cc(C4=CCN(C(=O)OC(C)(C)C)CC4)nn3c2=O)C1=O [Example 143, tert-butyl 4-[4-{2-[(5-fluoropyridin-2-yl)amino]-2-oxoethyl}-5,8-dioxo-6-(propan-2-yl)-5,6,7,8-tetrahydro-4H-pyrazolo[1,5-a]pyrrolo[3,4-d]pyrimidin-2-yl]-3,6-dihydropyridine-1(2H)-carboxylate] | 6600 | 197 | 20 | 34
15 | CCc1cc2n(CC(=O)Nc3ccc(Cl)cn3)c3c(c(=O)n2n1)CN(C(C)C)C3=O [Example 66] | 5450 | 98 | 81 | 56
16 | CCc1cc2n(CC(=O)Nc3ccc(F)cn3)c3c(c(=O)n2n1)CN(C1CCOC1)C3=O (racemic) [Example 71, 2-{2-ethyl-5,8-dioxo-6-[(±)-tetrahydrofuran-3-yl]-5,6,7,8-tetrahydro-4H-pyrazolo[1,5-a]pyrrolo[3,4-d]pyrimidin-4-yl}-N-(5-fluoropyridin-2-yl)acetamide] | > 23000 | >184 | 111 | 125
17 | CC(C)N1Cc2c(n(CC(=O)Nc3ccc(F)cn3)c3cc(C4CCNCC4)nn3c2=O)C1=O.Cl [Example 234, 2-[5,8-dioxo-2-(piperidin-4-yl)-6-(propan-2-yl)-5,6,7,8-tetrahydro-4H-pyrazolo[1,5-a]pyrrolo[3,4-d]pyrimidin-4-yl]-N-(5-fluoropyridin-2-yl)acetamide hydrochloride (1:1)] | > 32000 | >86 | 125 | 370
18 | CCc1cc2n(CC(=O)Nc3ccc(F)cn3)c3c(c(=O)n2n1)CN(CC1CCCO1)C3=O (racemic) [Example 77, 2-{2-ethyl-5,8-dioxo-6-[(±)-tetrahydrofuran-2-ylmethyl]-5,6,7,8-tetrahydro-4H-pyrazolo[1,5-a]pyrrolo[3,4-d]pyrimidin-4-yl}-N-(5-fluoropyridin-2-yl)acetamide] | 9050 | 49 | 102 | 185
19 | CC(C)N1Cc2c(n(CC(=O)Nc3ccc(F)cn3)c3cc(C(=O)NCC(F)F)nn3c2=O)C1=O [Example 184] | 3200 | 70 | 38 | 46
20 | CCc1cc2n(CC(=O)Nc3ccc(F)cn3)c3c(c(=O)n2n1)CN(C[C@H]1CN(C(C)C)CCO1)C3=O [Example 256, 2-(2-ethyl-5,8-dioxo-6-{[(2R)-4-(propan-2-yl)morpholin-2-yl]methyl}-5,6,7,8-tetrahydro-4H-pyrazolo[1,5-a]pyrrolo[3,4-d]pyrimidin-4-yl)-N-(5-fluoropyridin-2-yl)acetamide] | 1590 | 30 | 42 | 53
21 | CCc1cc2n(CC(=O)Nc3ccc(C)cn3)c3c(c(=O)n2n1)CN(CC1CCCO1)C3=O (centres unmarked) [Example 63] | 7400 | 20 | 355 | 370
22 | CC(C)N1Cc2c(n(CC(=O)Nc3ccc(F)cn3)c3cc(C4CCN(C5CCC5)CC4)nn3c2=O)C1=O [Example 252] | > 32000 | >91 | 460 | 350
23 | CC(C)Nc1cc2n(CC(=O)Nc3ccc(F)cn3)c3c(c(=O)n2n1)CN(C(C)C)C3=O [Example 171] | 4900 | 148 | 27 | 33
